Results reported in PubChem BioAssay AID1963437 (Molecular Pharmacology Branch, DTP, NCI, 2024).

System: OVCAR-8 complex spheroid, growth inhibition
Test: Anticancer human tumor OVCAR-8 cell line growth inhibition [Asc];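 further: spheroids exposed to agents for 7 days before readout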;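 on viability, T/C: percent viability relative to DMSO vehicle wells taken as 100%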
Conditions: for IC50: curve of first compound; for viability, T/C: stronger effect = lower value
Summary of the method: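 Tumor cells were grown as multicellular spheroids with stromal HUVEC and mesenchymal stem cells and treated singly or in combination. Concentrations fell in half-log steps from the clinical Cmax, or from 10 microM where none was known.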

[1] = second compound 0.00316 µM, first compound 0.00316 µM
[2] = second compound 0.00316 µM, first compound 0.01 µM
[3] = second compound 0.00316 µM, first compound 0.0316 µM
[4] = second compound 0.00316 µM, first compound 0.1 µM
[5] = second compound 0.00316 µM, first compound 0.316 µM
[6] = second compound 0.00316 µM, first compound 1 µM
[7] = second compound 0.01 µM, first compound 0.00316 µM
[8] = second compound 0.01 µM, first compound 0.01 µM
[9] = second compound 0.01 µM, first compound 0.0316 µM
[10] = second compound 0.01 µM, first compound 0.1 µM
[11] = second compound 0.01 µM, first compound 0.316 µM
[12] = second compound 0.01 µM, first compound 1 µM
[13] = second compound 0.0316 µM, first compound 0.00316 µM
[14] = second compound 0.0316 µM, first compound 0.01 µM
[15] = second compound 0.0316 µM, first compound 0.0316 µM
[16] = second compound 0.0316 µM, first compound 0.1 µM
[17] = second compound 0.0316 µM, first compound 0.316 µM
[18] = second compound 0.0316 µM, first compound 1 µM
[19] = second compound 0.1 µM, first compound 0.00316 µM
[20] = second compound 0.1 µM, first compound 0.01 µM
[21] = second compound 0.1 µM, first compound 0.0316 µM
[22] = second compound 0.1 µM, first compound 0.1 µM
[23] = second compound 0.1 µM, first compound 0.316 µM
[24] = second compound 0.1 µM, first compound 1 µM
[25] = second compound 0.316 µM, first compound 0.00316 µM
[26] = second compound 0.316 µM, first compound 0.01 µM
[27] = second compound 0.316 µM, first compound 0.0316 µM
[28] = second compound 0.316 µM, first compound 0.1 µM
[29] = second compound 0.316 µM, first compound 0.316 µM
[30] = second compound 0.316 µM, first compound 1 µM
[31] = second compound 1 µM, first compound 0.00316 µM
[32] = second compound 1 µM, first compound 0.01 µM
[33] = second compound 1 µM, first compound 0.0316 µM
[34] = second compound 1 µM, first compound 0.1 µM
[35] = second compound 1 µM, first compound 0.316 µM
[36] = second compound 1 µM, first compound 1 µM

CCN1CCN(Cc2ccc(Nc3ncc(F)c(-c4cc(F)c5nc(C)n(C(C)C)c5c4)n3)nc2)CC1 + CNC(C)C(=O)NC1CN(S(=O)(=O)c2cccc(S(=O)(=O)N3CCC4CCC(C(=O)NC(c5ccccc5)c5ccccc5)N4C(=O)C(NC(=O)C(C)NC)C3)c2)CCC2CCC(C(=O)NC(c3ccccc3)c3ccccc3)N2C1=O showed an IC50 (second compound 0.00316 µM) greater than 1000 nM, an IC50 (second compound 0.01 µM) greater than 1000 nM and an IC50 (second compound 0.0316 µM) greater than 1000 nM. For the same molecule, the IC50 (second compound 0.1 µM) was greater than 1000 nM, the IC50 (second compound 0.316 µM) was greater than 1000 nM and the IC50 (second compound 1 µM) was greater than 1000 nM. For the same molecule, the viability, T/C [1] was 102%, the viability, T/C [2] was 95.7% and the viability, T/C [3] was 96%. For the same molecule, the viability, T/C [4] was 85.9%, the viability, T/C [5] was 111% and the viability, T/C [6] was 114%. The viability, T/C [7] was 91.3%, the viability, T/C [8] was 86.7% and the viability, T/C [9] was 85%. It also gave a viability, T/C [10] of 85.3%, a viability, T/C [11] of 99.9% and a viability, T/C [12] of 148%. For the same molecule, the viability, T/C [13] was 90.6%, the viability, T/C [14] was 88.5% and the viability, T/C [15] was 84.7%. It also gave a viability, T/C [16] of 81.2%, a viability, T/C [17] of 91.2% and a viability, T/C [18] of 116%. For the same molecule, the viability, T/C [19] was 84%, the viability, T/C [20] was 78% and the viability, T/C [21] was 83.9%. It also gave a viability, T/C [22] of 92.5%, a viability, T/C [23] of 96.7% and a viability, T/C [24] of 111%. For the same molecule, the viability, T/C [25] was 75.6%, the viability, T/C [26] was 72% and the viability, T/C [27] was 82.5%. It also gave a viability, T/C [28] of 74.7%, a viability, T/C [29] of 102% and a viability, T/C [30] of 111%. The viability, T/C [31] was 79.8%, the viability, T/C [32] was 72.3% and the viability, T/C [33] was 88.1%. For the same molecule, the viability, T/C [34] was 82.6%, the viability, T/C [35] was 91.8% and the viability, T/C [36] was 104%.

NC(=O)C(=Cn1cnc(-c2cc(C(F)(F)F)cc(C(F)(F)F)c2)n1)c1cncnc1 + CNC(C)C(=O)NC1CN(S(=O)(=O)c2cccc(S(=O)(=O)N3CCC4CCC(C(=O)NC(c5ccccc5)c5ccccc5)N4C(=O)C(NC(=O)C(C)NC)C3)c2)CCC2CCC(C(=O)NC(c3ccccc3)c3ccccc3)N2C1=O showed an IC50 (second compound 0.00316 µM) of 261 nM, an IC50 (second compound 0.01 µM) greater than 300 nM and an IC50 (second compound 0.0316 µM) greater than 300 nM. It also gave an IC50 (second compound 0.1 µM) of 120 nM, an IC50 (second compound 0.316 µM) of 73.2 nM and an IC50 (second compound 1 µM) of 67.9 nM. It also gave a viability, T/C (second compound 0.00316 µM, first compound 0.000949 µM) of 140%, a viability, T/C (second compound 0.00316 µM, first compound 0.003 µM) of 111% and a viability, T/C (second compound 0.00316 µM, first compound 0.00949 µM) of 110%. The viability, T/C (second compound 0.00316 µM, first compound 0.03 µM) was 153%, the viability, T/C (second compound 0.00316 µM, first compound 0.0949 µM) was 95.6% and the viability, T/C (second compound 0.00316 µM, first compound 0.3 µM) was 43.8%. For the same molecule, the viability, T/C (second compound 0.01 µM, first compound 0.000949 µM) was 123%, the viability, T/C (second compound 0.01 µM, first compound 0.003 µM) was 129% and the viability, T/C (second compound 0.01 µM, first compound 0.00949 µM) was 110%. It also gave a viability, T/C (second compound 0.01 µM, first compound 0.03 µM) of 123%, a viability, T/C (second compound 0.01 µM, first compound 0.0949 µM) of 91.2% and a viability, T/C (second compound 0.01 µM, first compound 0.3 µM) of 54%. The viability, T/C (second compound 0.0316 µM, first compound 0.000949 µM) was 117%, the viability, T/C (second compound 0.0316 µM, first compound 0.003 µM) was 114% and the viability, T/C (second compound 0.0316 µM, first compound 0.00949 µM) was 112%. For the same molecule, the viability, T/C (second compound 0.0316 µM, first compound 0.03 µM) was 129%, the viability, T/C (second compound 0.0316 µM, first compound 0.0949 µM) was 74.5% and the viability, T/C (second compound 0.0316 µM, first compound 0.3 µM) was 48.4%. It also gave a viability, T/C (second compound 0.1 µM, first compound 0.000949 µM) of 122%, a viability, T/C (second compound 0.1 µM, first compound 0.003 µM) of 91.6% and a viability, T/C (second compound 0.1 µM, first compound 0.00949 µM) of 121%. It also gave a viability, T/C (second compound 0.1 µM, first compound 0.03 µM) of 138%, a viability, T/C (second compound 0.1 µM, first compound 0.0949 µM) of 55.3% and a viability, T/C (second compound 0.1 µM, first compound 0.3 µM) of 29.5%. For the same molecule, the viability, T/C (second compound 0.316 µM, first compound 0.000949 µM) was 109%, the viability, T/C (second compound 0.316 µM, first compound 0.003 µM) was 115% and the viability, T/C (second compound 0.316 µM, first compound 0.00949 µM) was 113%. For the same molecule, the viability, T/C (second compound 0.316 µM, first compound 0.03 µM) was 122%, the viability, T/C (second compound 0.316 µM, first compound 0.0949 µM) was 31.3% and the viability, T/C (second compound 0.316 µM, first compound 0.3 µM) was 7.46%. The viability, T/C (second compound 1 µM, first compound 0.000949 µM) was 97%, the viability, T/C (second compound 1 µM, first compound 0.003 µM) was 103% and the viability, T/C (second compound 1 µM, first compound 0.00949 µM) was 109%. For the same molecule, the viability, T/C (second compound 1 µM, first compound 0.03 µM) was 127%, the viability, T/C (second compound 1 µM, first compound 0.0949 µM) was 25.8% and the viability, T/C (second compound 1 µM, first compound 0.3 µM) was 4.16%.

Work on O=C(c1ccc(F)c(F)c1Nc1ccc(I)cc1F)N1CC(O)([C@@H]2CCCCN2)C1 + CNC(C)C(=O)NC1CN(S(=O)(=O)c2cccc(S(=O)(=O)N3CCC4CCC(C(=O)NC(c5ccccc5)c5ccccc5)N4C(=O)C(NC(=O)C(C)NC)C3)c2)CCC2CCC(C(=O)NC(c3ccccc3)c3ccccc3)N2C1=O yielded an IC50 (second compound 0.00316 µM) greater than 1000 nM, an IC50 (second compound 0.01 µM) greater than 1000 nM and an IC50 (second compound 0.0316 µM) of 969 nM. It also gave an IC50 (second compound 0.1 µM) of 641 nM, an IC50 (second compound 0.316 µM) of 548 nM and an IC50 (second compound 1 µM) of 508 nM. It also gave a viability, T/C [1] of 113%, a viability, T/C [2] of 97% and a viability, T/C [3] of 153%. For the same molecule, the viability, T/C [4] was 166%, the viability, T/C [5] was 232% and the viability, T/C [6] was 84.5%. The viability, T/C [7] was 97.3%, the viability, T/C [8] was 101% and the viability, T/C [9] was 146%. For the same molecule, the viability, T/C [10] was 185%, the viability, T/C [11] was 223% and the viability, T/C [12] was 98.7%. For the same molecule, the viability, T/C [13] was 95.2%, the viability, T/C [14] was 99.8% and the viability, T/C [15] was 116%. The viability, T/C [16] was 163%, the viability, T/C [17] was 216% and the viability, T/C [18] was 47.5%. The viability, T/C [19] was 82.3%, the viability, T/C [20] was 82.2% and the viability, T/C [21] was 118%. The viability, T/C [22] was 168%, the viability, T/C [23] was 153% and the viability, T/C [24] was 5.38%. It also gave a viability, T/C [25] of 70.8%, a viability, T/C [26] of 80.3% and a viability, T/C [27] of 90.4%. The viability, T/C [28] was 120%, the viability, T/C [29] was 108% and the viability, T/C [30] was 2.09%. The viability, T/C [31] was 76.4%, the viability, T/C [32] was 94.9% and the viability, T/C [33] was 101%. For the same molecule, the viability, T/C [34] was 106%, the viability, T/C [35] was 83.9% and the viability, T/C [36] was 1.27%.
